Measurements reported in patent US20060020036A1, “Methods and compositions to promote bone homestasis” (priority 2004, published 2006).
Entries after “also recorded” stand apart in the source; their conditions may differ.

Columns and labels:
NR1H2 = molecular target: T1, NR1H2 (Homo sapiens, UniProt P55055); experiment: AP assay: MPCs infected with Ad-NR1H2 and treated with ligand; type: cell-based; settings: ligand at different concentrations
T1 construct: amplification of the complete open reading frame from ATG start codon to the stop codon of drugable genes; expressed in transfected cells; host or cells: primary human mesenchymal progenitor cells (MPCs), transduced with Ad5-NR1H2 and Ad-hCAR
T1 sequence (P55055 1-460): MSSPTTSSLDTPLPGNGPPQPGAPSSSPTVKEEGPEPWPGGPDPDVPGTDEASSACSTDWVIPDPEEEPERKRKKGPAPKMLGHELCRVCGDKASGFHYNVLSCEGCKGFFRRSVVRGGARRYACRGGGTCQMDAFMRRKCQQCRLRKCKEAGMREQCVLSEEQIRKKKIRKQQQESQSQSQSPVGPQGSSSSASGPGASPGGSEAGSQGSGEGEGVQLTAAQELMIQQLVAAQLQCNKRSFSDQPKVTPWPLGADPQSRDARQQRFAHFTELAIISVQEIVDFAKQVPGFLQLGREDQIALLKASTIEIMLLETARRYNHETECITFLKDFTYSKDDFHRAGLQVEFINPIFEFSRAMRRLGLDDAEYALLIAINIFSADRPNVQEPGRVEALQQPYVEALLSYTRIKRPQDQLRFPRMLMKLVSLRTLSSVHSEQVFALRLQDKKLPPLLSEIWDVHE
Experimental: MPCs are seeded on day0 at 1000 cells per well of a 384 well plate and co-infected the next day using AdC51-hCAR (MOI 250) and different MOIs of Ad5-NR1H3 (MOI 2000, 666). On day 1, 5 concentrations (1E-9M, 1E-8M, 1E-7M, 1E-6M, 1E-5M) of the compound T0901317 (Cayman Chemical, Michigan, USA, Cat. No. 71810) with fixed vehicle concentration (DMSO at final concentration of 0.1%) are added to the wells. After 6 days, medium is removed and replaced with fresh medium containing the same concentrations of the compound T0901317. Readouts of AP activity are performed at several time points after the start of the experiment, typically after 7, 10 and 13 days. Up-regulation of alkaline phosphatase activity is read as follows: medium is removed from the monolayers, 15 μl MUP is added to each well, the plates are incubated for 15 min at 37° C. and then read for AP activity using a fluorescence plate reader (Fluostar, BMG).
(§1) MPCs are seeded on day 0 at 1000 cells per well of a 384 well plate and co-infected the next day using AdC51-hCAR (MOI 250) and different MOIs of Ad5-NR1H2 (MOI 2000, 666). […] Readouts of AP activity are performed at several time points after the start of the experiment, typically after 7, 10 and 13 days. Up-regulation of alkaline phosphatase activity is read as follows: medium is removed from the monolayers, 15 μL MUP is added to each well, the plates are incubated for 15 min at 37° C. and then read for AP activity using a fluorescence plate reader (Fluostar, BMG).
as §1, with “day0” for “day 0”, “AdC5′-hCAR” for “AdC51-hCAR”, “Ad5-NR1H2 or Ad-NR1H3” for “Ad5-NR1H2”, “6000).” for “666).”, “μl” for “μL”

primary human MPCs = experiment: Mineralization assay (Alizarin RedS / Von Kossa); type: cell-based; settings: MPCs with NR1H3 and T0901317
Experimental: On day one, primary human MPCs are seeded in a 6 well plate (Costar or Nunc) at a density of 50,000 to 250,000 cells per well, typically at 100,000 cells per well. MPCs are co-infected one day later with AdC15-hCAR (MOI 750) and Ad-control (eGFP or BMP2) or hit-virus (Ad5) (at MOIs between 250 and 20,000, typically at MOIs 5000 and 2500). For Ad-GPCR or Ad-NHR experiments, cells can additionally be treated with specific ligands. These are added at the EC50 concentration and at concentrations 5-10 times higher and lower. Ligands are added 2-3 times per week. Medium supplemented with 100 μg/ml L-ascorbate and 10 mM beta-glycerophosphate, is refreshed 2 times a week. 20 to 30 days after the start of the experiment, cells are stained with Von Kossa stain or with Alizarin RedS stain.
The Alizarin RedS staining is carried out as follows: cells are washed once with PBS, fixed with 10% paraformaldehyde for 45 minutes at 4° C., and washed 2 times with PBS. Cells are incubated with 40 mM aqueous Alizarin RedS solution, pH 4.1-4.3 for 10 minutes followed by 5 washes with distilled water. Staining is evaluated and photographed using white light.

[1] = system: RUNX2 (DN-RUNX2) in MPCs infected with Ad-NR1H3; experiment: DN-RUNX2 assay (AP activity in MPCs); type: cell-based, human; settings: Ad-NR1H3 in the presence of T0901317, Ad-DN-RUNX2 vs Ad-luciferase, 6 days post infection
Experimental: MPCs are seeded at 1000 cells/well in a 384 well plate and infected the next day with adenoviruses encoding hCAR (MOI 250), Ad-BMP2 (MOIs 6000, 2000, 666) and one of Ad-DN-RUNX2 or Ad-luciferase (MOIs 2000 or 666). Alkaline phosphatase activity is read 6 days post infection.
MPCs are seeded at 1000 cells/well in a 384 well plate and are infected the next day with adenoviruses encoding hCAR (MOI 250), Ad-BMP2, Ad-ESRRG, Ad-NR5A2, Ad-NR1H3 (MOIs 6000, 2000, 666) and one of Ad-DN-RUNX2 or Ad-luciferase (MOI 1000 or MOIs 2000 and 666) (see FIG. 19 (C)). Alkaline phosphatase activity is read 6 days post infection and raw data are analysed.

Structure (SMILES)	up-regulation of endogenous alkaline phosphatase (AP) activity, dose-response (NR1H2)	mineralization (primary human MPCs)	up-regulation of AP activity upon overexpression of DN-RUNX2 [1]
O=S(=O)(c1ccccc1)N(CC(F)(F)F)c1ccc(C(O)(C(F)(F)F)C(F)(F)F)cc1 [T0901317, N-(2,2,2-trifluoroethyl)-N-[4-[2,2,2-trifluoro-1-hydroxy-1-(trifluoromethyl)ethyl]phenyl]-benzenesulfonamide]	dose-response relation is observed; also recorded: AP activity is up-regulated; also recorded: Dose-dependent up-regulation of AP activity	score well	overexpression of DN-RUNX2 significantly reduces the up-regulation of AP activity; also recorded: DN-RUNX2 interferes with induction of AP activity
O=C(O)Cc1cccc(OCCCN(Cc2cccc(C(F)(F)F)c2Cl)CC(c2ccccc2)c2ccccc2)c1 [GW3965, 2-(3-(3-(N-(2-chloro-3-(trifluoromethyl)benzyl)-N-(2,2-diphenylethyl)amino)propoxy)phenyl)acetic acid]	dose-response relation is observed; also recorded: AP activity is up-regulated; also recorded: Dose-dependent up-regulation of AP activity	–	–
CC(=O)Oc1ccc2c(c1)[C@@]1(C)CCC[C@](C)(C(=O)OC(=O)[C@@]3(C)CCC[C@]4(C)c5cc(OC(C)=O)ccc5CC[C@@H]34)[C@@H]1CC2 [APD, acetyl podocarpic dimer]	dose-response relation is observed; also recorded: AP activity is up-regulated; also recorded: Dose-dependent up-regulation of AP activity	–	–
